Measurements published in US20200289521A1, “USE OF VITAMIN K IN COMBINATION WITH ANTICOAGULANTS” (KAYDENCE PHARMA AS, priority 2019, published 2020).

What was measured:
VSMCs [1] = test: Warfarin-induced oxidative stress in VSMCs, warfarin concentration series (DCFDA); type: cell-based; settings: warfarin 10 to 100 μM, fluorescence over 6 hours
Procedure: It is known that the level of reactive oxygen species in cells can be measured by measuring the conversion of 2′,7′-dichlorofluorescein diacetate (DCFDA) to the fluorescent dye 2′,7′-dichlorofluorescein (DCF). The fluorescence generated by cells subjected to DCFDA is directly proportional to the amount of oxidized DCFDA to DCF.
In this study, vitamin K metabolism was blocked using the vitamin K-antagonist warfarin. The study was conducted to investigate whether interference with vitamin K metabolism would cause intracellular oxidative stress. To perform the study, VSMCs (10,000 cells/well) were plated in 96-well plates and left to adhere overnight. Next, cells were incubated for 1 hour with 20 μM DCFDA. The medium was then changed to a medium supplemented with different concentrations of warfarin ranging from 10 to 100 μM, and fluorescence intensity was measured over 6 hours. Fluorescence was normalized for number of cells.

[2] = test system: human vascular smooth muscle cells (hVSMCs); test: ATP measurement in hVSMCs with warfarin and/or vitamin K2 (luminescence); type: cell-based; settings: 24 hours; warfarin 10 or 50 μM, vitamin K2 (MK-7) 10 μM
Procedure: This study was performed in order to determine the effect of vitamin K2 (MK-7) on warfarin-induced oxidative stress in muscles. To perform this study, human vascular smooth muscle cells (hVSMCs; 5,000 cells/well) were plated in 96-well dark plates and left to adhere overnight. Next, cells were incubated for 24 hours with either vehicle only (as blank control), warfarin (10 or 50 μM), vitamin K2 (MK-7) (10 μM), or a combination of warfarin (50 μM) and vitamin K2 (MK-7) (10 μM). Hoechst was added to correct for cell number (1 μg/mL). Next, ATP was measured using mammalian lysis buffer for 5 minutes after which 50 μL ATP substrate solution was added to the wells and incubated for 10 minutes in a dark environment. Finally, medium was transferred to a white plate to measure luminescence.

VSMCs [3] = test: Hypoxia (CoCl2) induced oxidative stress in VSMCs (DCFDA); type: cell-based
Procedure: This study was performed to determine whether intracellular oxidative stress in VSCMs is derived from mitochondrial dysfunction. To perform this study, VSMCs were incubated with cobalt chloride, a known stabilizer of HIF1a. Cobalt chloride binding to HIF1a prevents the degradation of HIF1a and thus results in a cellular hypoxia state. HIF1a has been implicated in cancer biology as well as a number of other pathophysiologies, specifically in areas of vascularization and angiogenesis, energy metabolism, cell survival, and tumor invasion. Under normal circumstances, after injury, HIF1a is degraded by the enzyme prolyl hydroxylase (PHD). The continued up-regulation of HIF1a (mimicked by cobalt chloride) promotes tumor growth and metastasis through its role in initiating angiogenesis and regulating cellular metabolism to overcome hypoxia. Hypoxia promotes apoptosis in both normal and tumor cells. Additionally, hypoxia generates significant intracellular oxidative stress.
To perform the study, VSMCs (10,000 cells/well) were plated in a 96-well plate and left to adhere overnight. Next, the medium was changed to a medium supplemented with 50 μM CoCl2 for 19 hours. The next day, cells were washed and incubated for 1 hour with 20 μM DCFDA in the presence of a vehicle (solvent for CoCl2 and vitamin K2 (MK-7)/UQ10), 10 μM vitamin K2 (MK-7), or 10 μM UQ10 in medium. The medium was then changed to a medium supplemented with vehicle, vitamin K2 (MK-7)/UQ10, or CoCl2, and fluorescent was measured for 6 hours. Fluorescence intensity was normalized for cell count.

VSMCs [4] = test: ATP increase in VSMCs, 48 hours, with CoCl2 arm (luminescence); type: cell-based
Procedure: This study was performed to further investigate the origin of ATP production that is influenced by vitamin K2 (MK-7). To perform this study, VSCMs (5000 cells/well) were plated in 96-well plates and left to adhere overnight. Next, cells were incubated for 48 hours with either vehicle, CoCl2 (100 μM), vitamin K2 (MK-7) (10 μM), or UQ10 (10 μM). Hoechst was added to correct for cell number (1 μg/mL). Next, ATP was measured using mammalian lysis buffer for 5 minutes, after which 50 μL ATP substrate solution was added to the wells and incubated for 10 minutes in a dark environment. Finally, medium was transferred to a white plate to measure luminescence.

VSMCs [5] = test: ATP increase in VSMCs, 24 hours (luminescence); type: cell-based; settings: 10 μM
Procedure: This study was performed to determine if vitamin K2 (MK-7) affects ATP generation. ATP is generated via glycolysis in the cytoplasm and via both the Krebs-cycle and oxidative phosphorylation in the mitochondria. ATP generation via glycolysis delivers only 2 ATP, whereas ATP generation in the mitochondria generates some 32 ATP.
To perform this study, VSCMs (5000 cells/well) were plated in 96-well plates and left to adhere overnight. Next, cells were incubated for 24 hours with either vehicle, vitamin K2 (MK-7) (10 μM), or UQ10 (10 μM). Hoechst was added to correct for cell number (1 μg/mL). Next, ATP was measured using mammalian lysis buffer for 5 minutes after which 50 μL ATP substrate solution was added to the wells and incubated for 10 minutes in a dark environment. Finally, the medium was transferred to a white plate to measure luminescence

[6] = test system: whole-blood thrombogenicity; test: T-TAS Total Thrombus-formation Analysis of whole blood from treated TGR rats; type: in vivo, transgenic Ren-2 rats [TGR(mREN-2)27]; settings: for AUC: area under flow pressure curve for 30 min, dabigatran 7.5, rivaroxaban 5.0, MK-7 1.5 mg/kg/day; for AUC / OT (time, min) / T10 (time, min): two weeks in diet; for OT (time, min) / T10 (time, min): dabigatran 7.5, rivaroxaban 5.0, vitamin K2 (MK-7) 1.5 mg/kg/day
Procedure: (§1) This experiment was conducted in order to evaluate the effects of vitamin K2 (MK-7) on the anticoagulant activity of the new oral anticoagulants (NOAC) rivaroxaban and dabigatran using the T-TAS Total Thrombus-formation Analysis System. The T-TAS Total Thrombus-formation Analysis System is a microchip-based flow chamber system capable of evaluating whole-blood thrombogenicity. It is a useful tool in monitoring the efficacy of anticoagulants on thrombus formation and predicting the risk of bleeding complications. To perform the study, 45 wild-type male Sprague-Dawley and 45 transgenic male Ren-2 rats [TGR(mREN-2)27] at the age of 10-11 weeks at the beginning of the treatment period were purchased from animal facility IKEM-CEM Institute of Clinical and Experimental Medicine (Prague, Czech Republic). All animals in the experiment were housed in individually ventilated cages (2-3 rats per cage) and kept in the animal rooms of JCET at a relative humidity of 55±10%, a temperature of 22±2° C., and a light cycle of 7 AM to 7 PM. The rats had free access to food and water. After delivery, animals were randomly divided into 10 experimental groups (5 or 10 rats per group), as indicated below in Table 1. Four days before the start of the treatment, the first part of animals' body weight and food intake was measured in selected representative three cages (rats n=9) to calculate the appropriate amount of tested compounds required for addition to the diet to obtain the dosing indicated in Table 1. It was estimated that food intake was approximately 30 g of chow per rat per day. The animals were fed for two weeks with AIN-93G diet supplemented with rivaroxaban or dabigatran with/without Vitamin K2 (MK-7), as indicated in Table 1. The animals were then anesthetized in order to draw blood samples for further analysis. The body mass of the rats was measured at the beginning and at the end of treatment. At the beginning and at the end of treatment, the food intake per day was measured in representative group of animals to monitor the daily dosing of tested compounds (per kg of body mass). The thrombus formation in vitro was measured in whole blood using a microchip-based flow chamber system according to manufacturers' protocol (Total Thrombus-formation Analyser System, T-TAS; Fujimori Kogyo Co., Ltd., Tokyo, Japan). For the analysis, citrated whole blood (480 μl) was mixed with 20 μl of 300 mM CaCl2 solution containing 1.25 mg/ml CTI (Corn Trypsin Inhibitor). […] The obtained flow pressure pattern for each sample was used to analyze thrombus formation based on the following estimated parameters: […]

[7] = test system: whole-blood thrombogenicity; test: T-TAS Total Thrombus-formation Analysis of whole blood from treated Sprague-Dawley rats; type: in vivo; settings: for AUC: area under flow pressure curve for 30 min, dabigatran 7.5, rivaroxaban 5.0, MK-7 1.5 mg/kg/day; for AUC / OT (time, min) / T10 (time, min): two weeks in diet; for OT (time, min) / T10 (time, min): dabigatran 7.5, rivaroxaban 5.0, vitamin K2 (MK-7) 1.5 mg/kg/day
Procedure: as §1

SMILES	AUC [6]	OT (time, min) [6] [min]	T10 (time, min) [6] [min]	AUC [7]	OT (time, min) [7] [min]	T10 (time, min) [7] [min]	other results
CC(=O)CC(c1ccccc1)c1c(O)c2ccccc2oc1=O (stereo not drawn) [warfarin]							intracellular oxidative stress (VSMCs [1]): did cause intracellular oxidative stress; cell ATP / ATP generation [2]: does not affect ATP generation
[Cl][Co][Cl] [CoCl2, cobalt chloride]							oxidative stress induced by the hypoxia inducer (VSMCs [3]; 50 μM CoCl2): induces increased oxidative stress; ATP production compared to vehicle (VSMCs [4]; CoCl2 100 μM, vitamin K2 (MK-7) 10 μM): decreased ATP production
COC1=C(OC)C(=O)C(C/C=C(\C)CC/C=C(\C)CC/C=C(\C)CC/C=C(\C)CC/C=C(\C)CC/C=C(\C)CC/C=C(\C)CC/C=C(\C)CC/C=C(\C)CCC=C(C)C)=C(C)C1=O [UQ10]							hypoxia induced oxidative stress (VSMCs [3]; 50 μM CoCl2 for 19 hours, test substance 10 μM, 6 hours): This effect was not found; ATP production compared to the vehicle (VSMCs [5]): only vitamin K2 (MK-7) increased ATP production; ATP levels compared to CoCl2 (VSMCs [4]; 10 μM vs CoCl2 100 μM): significant higher ATP levels
[H]/N=C(/N)c1ccc(NCc2nc3cc(C(=O)N(CCC(=O)O)c4ccccn4)ccc3n2C)cc1 [Dabigatran]	1898 ± 80.66	8.011 ± 1.317	4.780 ± 0.7073	2039 ± 32.5	5.753 ± 0.587	3.386 ± 0.237	
O=C(NC[C@H]1CN(c2ccc(N3CCOCC3=O)cc2)C(=O)O1)c1ccc(Cl)s1 [Rivaroxaban]	1876 ± 91.28	8.324 ± 1.578	4.996 ± 0.8216	2011 ± 28.7	6.133 ± 0.518	3.732 ± 0.266	thrombus formation ([6]; anticoagulant alone): also inhibited thrombus formation; thrombus formation ([7]; anticoagulant alone): inhibited thrombus formation
